Molecules are shown by their SMILES.

IC50 data for two compounds are collected here from patent publication US8846704B2, “Thiopyrimidine-based compounds and uses thereof” (YM Biosciences Austraila Pty Ltd, priority 2007, dated 2014).

This assay addresses T1, human CSF1-R (FMS) (Homo sapiens, UniProt P07333).
T1 construct: from codon I553 to Q961; GST (N); made in house; host or cells: Sf9 insect cells (baculovirus)
T1 sequence (P07333 553-961): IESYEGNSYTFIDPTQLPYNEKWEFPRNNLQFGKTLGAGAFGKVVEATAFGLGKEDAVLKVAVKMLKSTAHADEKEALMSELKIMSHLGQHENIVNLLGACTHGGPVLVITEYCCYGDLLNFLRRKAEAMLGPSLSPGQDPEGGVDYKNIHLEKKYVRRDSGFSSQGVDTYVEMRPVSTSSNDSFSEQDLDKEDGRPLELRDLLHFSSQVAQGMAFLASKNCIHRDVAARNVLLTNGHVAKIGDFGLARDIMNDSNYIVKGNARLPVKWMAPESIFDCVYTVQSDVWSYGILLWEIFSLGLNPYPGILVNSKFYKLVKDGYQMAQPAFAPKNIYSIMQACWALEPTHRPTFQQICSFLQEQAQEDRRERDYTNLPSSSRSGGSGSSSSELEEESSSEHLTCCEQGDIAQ
Put plainly: Alphascreen tyrosine kinase enzyme assay, CSF-1R (FMS) kinase domain. In kind it is biochemical. The note with it: read-out: FMS, FLT3, or HCK IC50_nM (FMS). On the procedure: For screening purposes, compounds (in 100% DMSO) were warmed at 37 degrees for at least 20 minutes before use. A […] stock was initially made in assay buffer, where the final concentration of DMSO was 0.3%. The stocks were then diluted in 384 well Optiplates (Packard) where the final concentration of the compound was […].
The kinase domain of human CSF1-R from codon I553 to Q961 was cloned into the pDest20 expression vector (Invitrogen). The CSF1-R plasmid was then transformed into competent DH10Bac cells (Gibco), and the recombinant baculovirus produced prepared for transfection into Sf9 insect cells.
Baculovirus preparations from each of the constructs were infected into either one or five liters of Sf9 cells (Invitrogen) grown in SF-900 medium (Invitrogen) to a cell density of approximately 1-2×10^6 cells/ml. Cells were infected with virus at a MOI of 0.8-3.0. Cells were harvested and lysed. Tyrosine kinase domains were purified by affinity chromatography on a glutathione-agarose column (Scientifix Pty. Ltd. catalog #: GSH-200).
Kinase assays were performed in 384 well Optiplates (Packard) using an Alphascreen Protein Tyrosine Kinase PY100 detection kit The compounds were pre-incubated with affinity purified PTK domain in the presence of phosphotyrosine assay buffer (10 mM HEPES, pH 7.5, 100 mM MgCl2, 25 mM NaCl, […] and 0.1% Tween 20) for 20 minutes. The compounds were then incubated with substrate in the presence of ATP. The substrate used was susbtrate-1 with the sequence biotin-EGPWLEEEEEAYGWMDF-NH2 [SEQ. ID. NO. 13] (final concentration […]). For HCK 80 μm ATP was used and incubated for 60 minutes. Alphascreen phosphotyrosine acceptor beads followed by streptavidin donor beads at a concentration of 1/100 in stop buffer were added to each well under subdued light and incubated for 2-3 hours., The Alphascreen plates were read on a Packard Fusion Alpha instrument.
On the technique in general: Alpha assays give light when donor and acceptor beads are brought close together.

Take `C=CC(=O)Nc1ccc(Sc2ccnc(Nc3cccc(N4CCOCC4)c3)n2)cc1` [Compound 77, N-(4-(2-(3-morpholinophenylao)pyrimidin-4-ylthio)phenyl)acrylamide]: the IC50 was less than 500 nM.

In the case of `C=CC(=O)Nc1ccc(Sc2ccnc(Nc3cc(C)cc(C)c3)n2)cc1` [Compound 82, N-(4-(2-(3,5-dimethylphenylao)pyrimidin-4-ylthio)phenyl)acrylamide], the IC50 was less than 500 nM.
